From US9408406B2, “Food and beverage products containing 1,3-propanediol and methods of suppressing bitterness and enhancing sweetness in food and beverage products using 1,3-propanediol” (Kraft Foods Group Brands LLC, priority 2012, dated 2016)
“Also recorded” adds a separate entry of the source.

Columns and labels:
consumers [1] = assay: Paired consumer tasting of beverages with 0.05% Stevia SG95 with or without 1,3-propanediol (Example 1); assay type: in vivo, human
Protocol: Beverage samples were prepared to evaluate the effect of the level of 1,3-propanediol on Stevia. The beverages were prepared just prior to testing using water and the ingredients according to Table 1 below.
Four pairs of beverages were evaluated by consumers in one sitting. The order of evaluating the pairs of products was blocked so that the highest level of 1,3-propanediol (sample 4) was always served as the first pair of beverages along with its corresponding control. The order of evaluating the beverage samples within pairs was rotated. There was a timed five minute break between pairs. Water and unsalted crackers were used as a palate cleanser before tasting each beverage and between beverage pairs. The beverages were prepared at the facility prior to the onset of test using water along with the designated solutions.
The stevia used was SG95 from PureCircle. SG95 is a high purity combination (>95% steviol glycosides) of nine steviol glycosides. Reb A accounts for over half of the composition but also includes Rebaudioside D and Rebaudioside F. SG95 is 230 times sweeter than sugar.
The samples were tasted by consumers between 21-55 years of age who consume diet beverages at least once per month and are non-rejectors of flavored beverages. The consumers had no allergies or sensitivities to beverages or sweeteners, including artificial sweeteners.

tasters [2] = assay: Paired taster test: which sample is more bitter, 0.25% KCl in water with or without 1,3-propanediol (Example 2); assay type: in vivo, human
Protocol: A 0.25% KCl in water solution was prepared and test samples were dosed with the appropriate amount of 1,3-propanediol according to Table 2 below. One ounce samples of each solution were prepared. The tasters received a pair (one blank and one dosed sample) and asked to rate which sample was more bitter. The scores in Table 2 are the number of tasters that chose that sample as being more bitter.

consumers [3] = assay: Paired consumer tasting of beverages with 0.25% KCl with or without 1,3-propanediol (Example 3); assay type: in vivo, human
Protocol: Beverage samples were prepared to evaluate the effect of the level of 1,3-propanediol on KCl. The samples were tasted by consumers between 21-55 years of age with no allergies or sensitivities to food or beverages or ingredients.
(§1) On day 1 of testing, consumers were given two samples, one a 0.25% KCl solution and the other water, and asked “Which beverage is more bitter?” This was replicated a total of three times to obtain four different trials. Order within the pair was rotated. Those who selected the KCl sample at least three times across the four trials were classified as “KCl sensitive.” Consumers then evaluated three more pairs of samples with varying levels of 1,3-propanediol with KCl versus a standard control (no 1,3-propanediol) as outlined in Table 3 below.
(§2) After the first day of testing, it was determined the number of KCl Bitterness Sensitive consumers may have been overstated. It was hypothesized that respondents could detect differences between plain water and water containing KCl, such as saltiness, but may not have been perceiving bitterness. Therefore, a second bitterness sensitivity test was conducted on day 2 using three pairs of a KCl solution (0.25%) versus a NaCl solution (0.15%) in an attempt to have the solutions iso-salty. Two new levels of Zemea were evaluated along with KCl versus a standard control as outlined in Table 3 below.
The order of evaluating the beverage samples within pairs were rotated (left/right). The order of evaluating the pairs of products was blocked so the highest level of 1,3-propanediol was always served as the first pair of beverages along with its control. There was a timed 5 minute break between pairs. Water and unsalted crackers were used as a palate cleanser before tasting each beverage and between beverage pairs.

tasters [4] = assay: Triangle test for detecting 1,3-propanediol at low concentration (Example 4); assay type: in vivo, human; conditions: for tasters who could identify the 1,3-propanediol in a triangle test: four tasters
Protocol: Samples A-D were prepared according to Table 4 below to analyze and determine if 1,3-propanediol imparted any flavor when used at low concentrations. The samples were evaluated by a team of four tasters.
Samples A and B were compared.

panelists = assay: Panel assessment of Reb A beverage with or without 1,3-propanediol (Example 5); assay type: in vivo, human; conditions: Sample H versus Sample G
Protocol: Samples were prepared to analyze the effect of 1,3-propanediol with sweeteners such as Reb A. Samples G and H were prepared as shown in Table 5 below.
Nine panelists compared the samples. Panelists rinsed prior to tasting the samples and in between sample assessment with seltzer, unsalted crackers and water with a one-minute break between samples. Samples were assessed on the second sip. The results are shown below in Table 6 with the comments indicating the order of what was tasted in each of the samples (Scale: 0-15=None to Extreme).

tasters [5] = assay: Taster evaluation with acetic acid (Example 7); assay type: in vivo, human; conditions: 0.05 percent acetic acid in water; none, 0.3 percent 1,3-propanediol or 0.3 percent propylene glycol; three tasters
Protocol: Samples were prepared to evaluate the effect of inclusion of 1,3-propanediol with acetic acid. Sample M included 0.05 percent acetic acid in water, Sample N included 0.05 percent acetic acid in water with 0.3 percent 1,3-propanediol, and Sample O included 0.05 percent acetic acid in water with 0.3 percent propylene glycol. The samples were evaluated by a team of three tasters.

tasters [6] = assay: Taster evaluation with 1% citric acid (Example 9); assay type: in vivo, human; conditions: 1 weight percent citric acid in water; 0.3 weight percent propylene glycol (V), none (W) or 1,3-propanediol (X); four tasters
Protocol: Samples were prepared to evaluate the effect of including 1,3-propanediol with a higher concentration of citric acid than in Example 8. Sample V included 1 weight percent citric acid and 0.3 weight percent propylene glycol in water. Sample W included 1 weight percent citric acid in water. Sample X included 1 weight percent citric acid in water with 0.3 weight percent 1,3-propanediol. The samples were then evaluated by a team of four tasters.

tasters [7] = assay: Taster evaluation with malic acid (Example 10); assay type: in vivo, human; conditions: 1 weight percent malic acid in water; 0.3 weight percent 1,3-propanediol (Y), propylene glycol (Z) or none (AA)
Protocol: Samples were prepared to evaluate the effect of including 1,3-propanediol with malic acid. Sample Y included 1 weight percent malic acid with 0.3 weight percent 1,3-propanediol in water. Sample Z included 1 weight percent malic acid and 0.3 weight percent propylene glycol in water. Sample AA included 1 weight percent malic acid in water.

tasters [8] = assay: Taster evaluation with earl grey tea (Example 11); assay type: in vivo, human; conditions: steeped earl grey tea; 0.3 weight percent 1,3-propanediol (AB), none (AC) or propylene glycol (AD); four tasters
Protocol: Samples were prepared to evaluate the effect of including 1,3-propanediol with tea. Six earl grey tea bags were combined with 250 ml of water for 30 minutes. Sample AB included 0.3 weight percent 1,3-propanediol in the steeped tea and Sample AD included 0.3 weight percent propylene glycol in the steeped tea. Sample AC was a tea only control. The samples were evaluated by a team of four tasters.

tasters [9] = assay: Taster evaluation with Robusta instant coffee (Example 12); assay type: in vivo, human; conditions: 1 weight percent Robusta instant coffee in water; 0.3 weight percent propylene glycol (AE), none (AF) or 1,3-propanediol (AG)
Protocol: Samples were prepared to evaluate the effect of including 1,3-propanediol with coffee. Robusta instant coffee was prepared with 1 weight percent coffee in water. Sample AE included 0.3 weight percent propylene glycol in the prepared coffee. Sample AF was a coffee only control. Sample AG included 0.3 weight percent 1,3-propanediol in the prepared coffee.

tasters [10] = assay: Bitterness perception with potassium chloride, taster panel (Example 6); conditions: 0.3% KCl in water; 0.3% 1,3-propanediol, none or 0.3% propylene glycol; five tasters
consumers [11] = assay: KCl bitterness sensitivity test (Example 3); assay type: in vivo, human
Text: as §1, §2

[12] = first round, Pair 1: 0.0019 percent 1,3-propanediol with 0.05% Stevia SG95
[13] = first round, Pair 2: 0.0075 percent 1,3-propanediol with 0.05% Stevia SG95
[14] = second round, Pair 2: 0.000005 percent 1,3-propanediol with 0.05% Stevia SG95
[15] = second round, Pair 4: 0.0005 percent 1,3-propanediol with 0.05% Stevia SG95
[16] = 0.000005 ppm 1,3-propanediol in 0.25% KCl in water
[17] = 0.00005 ppm 1,3-propanediol in 0.25% KCl in water
[18] = 0.005 ppm 1,3-propanediol in 0.25% KCl in water
[19] = 0.05 ppm 1,3-propanediol in 0.25% KCl in water
[20] = 0.5 ppm 1,3-propanediol in 0.25% KCl in water
[21] = 5 ppm 1,3-propanediol in 0.25% KCl in water
[22] = 50 ppm 1,3-propanediol in 0.25% KCl in water
[23] = 100 ppm 1,3-propanediol in 0.25% KCl in water
[24] = 500 ppm 1,3-propanediol in 0.25% KCl in water
[25] = 5000 ppm 1,3-propanediol in 0.25% KCl in water
[26] = about 0.0005% 1,3-propanediol with 0.25% KCl, consumers (general population), FIG. 4

OCCCO [1,3-propanediol]
Stevia bitterness versus control (consumers [1]; [12]): significantly less Stevia bitterness
more mouth drying, longer lasting aftertaste and sweetness versus control (consumers [1]; [12]): Neither the control nor the experimental sample of Pair 1 demonstrated significantly
sweetness versus control (consumers [1]; [12]): fell short on being sweeter than control
all other attributes versus control (consumers [1]; [13]): selected about equally
mouth drying versus control (consumers [1]; [13]): significantly more “mouth drying”
attributes versus control (consumers [1]; first round, Pair 3: 0.0150 percent 1,3-propanediol with 0.05% Stevia SG95): no statistical differences in attributes
attributes versus control (consumers [1]; first round, Pair 4: 0.03 percent 1,3-propanediol (text; Table 1 prints 0.3%) with 0.05% Stevia SG95): no statistical differences in attributes
bitterness versus control (consumers [1]; first round, Pair 4 level of 1,3-propanediol with 0.05% Stevia SG95): numerically more bitterness
attributes versus control (consumers [1]; second round, Pair 1: 0.0000005 percent 1,3-propanediol with 0.05% Stevia SG95): no statistical differences in attributes
aftertaste compared to control (consumers [1]; [14]): significantly longer lasting aftertaste
all other attributes versus control (consumers [1]; [14]): selected about equally
attributes versus control (consumers [1]; second round, Pair 3: 0.00005 percent 1,3-propanediol with 0.05% Stevia SG95): no statistical differences in attributes
bitterness compared to control (consumers [1]; [15]): significantly less bitterness
sweetness compared to control (consumers [1]; [15]): more sweetness; also recorded: significantly sweeter versus control
% of tasters that chose the control as more bittter (tasters [2]; [16]): 63%
number of tasters that chose the 1,3-Propanediol sample as being more bitter (tasters [2]; [16]): 3
% of tasters that chose the control as more bittter (tasters [2]; [17]): 63%
number of tasters that chose the 1,3-Propanediol sample as being more bitter (tasters [2]; [17]): 3
% of tasters that chose the control as more bittter (tasters [2]; 0.0005 ppm 1,3-propanediol in 0.25% KCl in water): 100%
% of tasters that chose the control as more bittter (tasters [2]; [18]): 50%
number of tasters that chose the 1,3-Propanediol sample as being more bitter (tasters [2]; [18]): 4
% of tasters that chose the control as more bittter (tasters [2]; [19]): 75%
number of tasters that chose the 1,3-Propanediol sample as being more bitter (tasters [2]; [19]): 2
% of tasters that chose the control as more bittter (tasters [2]; [20]): 63%
number of tasters that chose the 1,3-Propanediol sample as being more bitter (tasters [2]; [20]): 3
% of tasters that chose the control as more bittter (tasters [2]; [21]): 63%
number of tasters that chose the 1,3-Propanediol sample as being more bitter (tasters [2]; [21]): 3
% of tasters that chose the control as more bittter (tasters [2]; [22]): 75%
number of tasters that chose the 1,3-Propanediol sample as being more bitter (tasters [2]; [22]): 2
% of tasters that chose the control as more bittter (tasters [2]; [23]): 75%
number of tasters that chose the 1,3-Propanediol sample as being more bitter (tasters [2]; [23]): 2
% of tasters that chose the control as more bittter (tasters [2]; [24]): 75%
number of tasters that chose the 1,3-Propanediol sample as being more bitter (tasters [2]; [24]): 2
% of tasters that chose the control as more bittter (tasters [2]; [25]): 13%
number of tasters that chose the 1,3-Propanediol sample as being more bitter (tasters [2]; [25]): 7
taste of 1,3-propanediol itself (tasters [2]; 5000 ppm sample in 0.25% KCl in water): the bitterness of the 1,3-propanediol was apparent
sweetness, statistical significance (consumers [3]; 0.0005 percent 1,3-propanediol with 0.25% KCl, non-KCl sensitive consumers): statistically significant increase in sweetness
reduced bitterness and increased sweetness (consumers [3]; about 0.0005% 1,3-propanediol with 0.25% KCl, KCl sensitive consumers, FIG. 5): also found in the KCl sensitive consumers (FIG. 5), although to a less dramatic extent
bitterness (consumers [3]; [26]): reduced bitterness
sweetness (consumers [3]; [26]): increased sweetness
tasters who could identify the 1,3-propanediol in a triangle test (tasters [4]; Samples A and B: 0.14% 1,3-propanediol in water): one
tasters who could identify the 1,3-propanediol in a triangle test (tasters [4]; Samples C and D: 0.14% 1,3-propanediol in water with 10% sucrose): one
detectability at low levels (tasters [4]; water or sucrose sweetened beverages): generally not detectable at low levels
effect on flavor profile with Reb A (panelists): general shift in bitter and sour flavor profiles
sourness as indicated by the tasters (tasters [5]): increases the sourness compared to water when combined with acetic acid
sourness as indicated by the tasters (tasters [6]): increased sourness perception when combined with citric acid
sourness as indicated by the tasters (tasters [7]): more sour upfront but less lingering
other flavor notes / flavor profile as indicated by the tasters (tasters [8]): sour, bitter, and astringent characteristics all changed
bitterness as indicated by the tasters (tasters [9]): less bitter than without 1,3-propanediol
bitterness as indicated by the tasters (tasters [10]): functioned to suppress bitterness when used with potassium chloride

[Cl-].[K+] [KCl, potassium chloride]
share of “KCl sensitive” consumers (consumers [11]; day 1: 0.25% KCl solution versus water): 67%
share of “KCl sensitive” consumers (consumers [11]; day 2: KCl solution (0.25%) versus NaCl solution (0.15%)): 53%
